Several values for one entry are separate records, joined by “and”; a condition that tells them apart may be missing. Equal entries are not always repeated. Where two headings read alike, the source gives them in different places.
Key:
[1] = system: HT29 human tumor xenografts; experiment: HT29 xenograft study e212, oral and i.v. (Example 26)
Source text: The formulation for oral studies was an ethanol and Cremophor formulation while the formulation for compound 18365 and compound 19244 dosed i.v. was 5% ethanol and 95% Liposyn II 20%.

[2] = system: OVCAR4; experiment: MTT cytotoxicity (IC50), OVCAR4; format: cell-based; conditions: Homo sapiens, OVCAR-4, 72 h, read-out: IN Vitro IC50 (nm) OVCAR4
Description: (§1) Compound 17932 was tested in four of these cell lines, while the remaining compounds were tested in all of these cell lines. All cell lines were maintained in RPMI-1640 tissue culture medium (TCM, supplemented with antibiotics and 10% fetal bovine serum) and cultured at 37° C. in humidified air containing 5% CO2. To assess the antiproliferative effects of the test compounds, 172 μL of tumor cell suspension (1.45×10^4 cells/ml) were added to each well of a 96-well plate and incubated for 24 h at 37° C. in 5% CO2 in air to allow cells to adhere. Seven 2-fold drug dilutions in TCM/DMSO were performed in triplicate in separate 96-well plates and 28 μL was transferred to the wells containing tumor cells (200 μL final volume/0.1% DMSO). Plates were incubated for 72 h and cell viability was determined by adding 50 μL of warm TCM containing 5 mg/mL MTT (3-[4,5-dimethylthiazol-2-yl]-2,5-diphenyltetrazolium bromide) to each well and incubating for 1 h at 37° C. Plates were processed and the absorbances of the resulting solutions were measured by a plate reader at 570 nm. […] (GraphPad Prism version 4.00 for Windows). Studies were conducted by Taxolog, Inc., Tallahassee, Fla.

[3] = system: 786-0; experiment: MTT cytotoxicity (IC50), 786-0; format: cell-based; conditions: Homo sapiens
Description: as §1

[4] = system: MALME-3; experiment: MTT cytotoxicity (IC50), MALME-3; format: cell-based; conditions: Homo sapiens, 72 h, read-out: IN Vitro IC50 (nm) Malme3
Description: as §1

[5] = system: MX1 human tumor xenografts
[6] = system: SK-MEL-28; experiment: MTT cytotoxicity (IC50), SK-MEL-28; format: cell-based; conditions: Homo sapiens, 72 h, read-out: IN Vitro IC50 (nm) ske-mel28
Description: as §1

[7] = system: human BxPC-3 human pancreatic xenograft; format: in vivo; conditions: for antitumor activity: repeated IV injections at 5 and 7 mg/kg/inj; for T/C % values: from D33
Description: Method: Twenty four (24) hours after a whole body irradiation with a γ-source (7.0 Gy, Co^60, INRA, Dijon, France) 20×10^6 BxPC-3 cells in 200 μl of RPMI 1640 culture medium were subcutaneously injected in the right flank of 8 female Nude rats to generate tumor material. When the tumor size reaches approximately 1,000 mm^3, the tumors were surgically excised for implantation into recipient Nude female rats. Twenty four (24) hours after a whole body irradiation (7.0 Gy, Co^60, INRA, Dijon, France), fresh BxPC-3 tumor fragments were sc implanted in the right flank of 52 Nude female rats (1 fragment/rat) at D0 using surgical pliers and skin was stitched. The antitumor activity study was started at D21 when the mean tumor volume has reached 321.6±131.2 mm^3. Before the start of treatments, 42 tumor bearing rats out of 52 grafted were randomized into 7 groups of 6 animals.
[…]. At 7 mg/kg/inj, only two treatments were performed at D21 and D42 due to severe body weight loss.

[8] = system: HOP-18; experiment: MTT cytotoxicity (IC50), HOP-18; format: cell-based; conditions: Homo sapiens, 72 h, read-out: IN Vitro IC50 (nm) HOP18
Description: as §1

[9] = system: OVCAR5; experiment: MTT cytotoxicity (IC50), OVCAR5; format: cell-based; conditions: Homo sapiens, OVCAR-5, 72 h, read-out: IN Vitro IC50 (nm) OVCAR5
Description: as §1

[10] = system: A549; experiment: MTT cytotoxicity (IC50), A549; format: cell-based; conditions: Homo sapiens, 72 h, read-out: IN Vitro IC50 (nm) A549
Description: as §1

[11] = system: DLD-1; experiment: MTT cytotoxicity (IC50), DLD-1; format: cell-based; conditions: Homo sapiens
Description: as §1

[12] = system: human MX-1 breast carcinoma; experiment: MX1 xenograft study e219R1, i.v. single dose (Example 17)
[13] = MTT, 72 h, read-out: IN Vitro IC50 (nm) 786-0
[14] = Resistance MDR1+, read-out: 786-0 Renal (Table 4, quantity not named; IC50 values as Table 2)
[15] = MTT, 72 h, read-out: IN Vitro IC50 (nm) DLD1
[16] = Resistance MDR1+, read-out: DLD1 Colon (Table 4, quantity not named; IC50 values as Table 2)
[17] = 25 mg/kg iv qwk × 3, vehicle ET

CCC(=O)O[C@H]1C(=O)[C@@]2(C)C([C@H](OC(=O)c3ccccc3)[C@]3(O)C[C@H](OC(=O)[C@H](O)[C@@H](NC(=O)OC4CCC4)c4cccs4)C(C)=C1C3(C)C)[C@]1(OC(C)=O)CO[C@@H]1C[C@@H]2O (stereo partly drawn) [Compound 19244]
activity in the HT29 xenograft tumor model ([1]; every four day schedule for four doses): oral and IV activity | IC50 [2]: 2.7 nM | IC50 [3, 13]: 0.9 nM | IC50 [3, 14]: 0.9 nM | IC50 [4]: 1.1 nM | % TGD ([5]; 7.5 mg/kg iv qd × 1): −3% and −2.64% | Median TTE ([5]; 7.5 mg/kg iv qd × 1): 16.72 days | T-C ([5]; 7.5 mg/kg iv qd × 1): -0.45 days | activity (logrank test) ([5]; 7.5 mg/kg iv qd × 1): nonsignificant activities | CR (complete regression) ([5]; 7.5 mg/kg iv qd × 1, n=5): 0 | NTR (non-treatment-related death) ([5]; 7.5 mg/kg iv qd × 1, n=5): 0 | PR (partial regression) ([5]; 7.5 mg/kg iv qd × 1, n=5): 0 | TFS (tumor-free survivor) ([5]; 7.5 mg/kg iv qd × 1, n=5): 0 | TR (treatment-related death) ([5]; 7.5 mg/kg iv qd × 1, n=5): 0 | % TGD ([5]; 15 mg/kg iv qd × 1): 83% and 83.42% | Median TTE ([5]; 15 mg/kg iv qd × 1): 31.49 days | T-C ([5]; 15 mg/kg iv qd × 1): 14.32 days | activity (logrank test) ([5]; 15 mg/kg iv qd × 1): nonsignificant activities | CR (complete regression) ([5]; 15 mg/kg iv qd × 1, n=5): 0 | NTR (non-treatment-related death) ([5]; 15 mg/kg iv qd × 1, n=5): 0 | PR (partial regression) ([5]; 15 mg/kg iv qd × 1, n=5): 0 | TFS (tumor-free survivor) ([5]; 15 mg/kg iv qd × 1, n=5): 0 | TR (treatment-related death) ([5]; 15 mg/kg iv qd × 1, n=5): 0 | % TGD ([5]; 30 mg/kg iv qd × 1): 235% and 235.44% | MTV (n), Day 60 ([5]; 30 mg/kg iv qd × 1): 0.00 (2) mm^3 | Median TTE ([5]; 30 mg/kg iv qd × 1): 57.59 days | T-C ([5]; 30 mg/kg iv qd × 1): 40.42 days | activity (logrank test) ([5]; 30 mg/kg iv qd × 1): significant activity | CR (complete regression) ([5]; 30 mg/kg iv qd × 1, n=5): 4 | NTR (non-treatment-related death) ([5]; 30 mg/kg iv qd × 1, n=5): 0 | PR (partial regression) ([5]; 30 mg/kg iv qd × 1, n=5): 1 | TFS (tumor-free survivor) ([5]; 30 mg/kg iv qd × 1, n=5): 2 | TR (treatment-related death) ([5]; 30 mg/kg iv qd × 1, n=5): 0 | mice survived to D60 ([5]; 30 mg/kg iv qd × 1, n=5): two | transient CRs ([5]; 30 mg/kg iv qd × 1, n=5): 2 | IC50 [6]: 2 nM | tolerability of repeated IV treatments ([7]; 5 mg/kg/inj): well tolerated | mean doubling time (DT) of tumors ([7]; 5 mg/kg/inj IV, repeated): 19.3 ± 6.5 days | time to reach volume (T to V) of 1,000 mm^3 ([7]; 5 mg/kg/inj IV, repeated): 46.0 ± 11.6 days | MBWC D21-D26 ([7]; 5 mg/kg/inj IV, after the first injection): −15.9±5.6% | optimal T/C % value ([7]; 5 mg/kg/inj IV, at D53): 27.7% | tolerability of repeated IV treatments ([7]; 7 mg/kg/inj): not tolerated | rats out of six alive at the end of the study ([7]; 7 mg/kg/inj IV): two | MBWC D21-D26 ([7]; 7 mg/kg/inj IV, after the first treatment): −20.1±5.7% | antitumor activity [7]: marked antitumor activity | IC50 [8]: 1.5 nM | IC50 [9]: 0.6 nM | IC50 [10]: 0.5 nM | IC50 [11, 15]: 1.8 nM | IC50 [11, 16]: 1.8 nM

CC(=O)O[C@@]12CO[C@@H]1C[C@H](O)[C@@]1(C)C(=O)[C@H](O)C3=C(C)[C@@H](OC(=O)[C@H](O)[C@@H](NC(=O)OC(C)(C)C)c4ccccc4)C[C@@](O)([C@@H](OC(=O)c4ccccc4)[C@H]21)C3(C)C [Docetaxel, docetaxel, reference compound]
CR (complete regression) ([1]; 25 mg/kg iv qwk × 3, n=6): 0 | NTR NTRm ([1]; 25 mg/kg iv qwk × 3, n=6): 0 | PR (partial regression) ([1]; 25 mg/kg iv qwk × 3, n=6): 3 | TFS (tumor-free survivor) ([1]; 25 mg/kg iv qwk × 3, n=6): 0 | TR (treatment-related death) ([1]; 25 mg/kg iv qwk × 3, n=6): 0 | % TGD [1, 17]: 237.14% | MTV (n), Day 59 [1, 17]: 600.00 (6) mm^3 | Median TTE [1, 17]: 59 days | T-C [1, 17]: 41.5 days | IC50 [2]: 1.4 nM | IC50 [3, 13]: 6.2 nM | IC50 [3, 14]: 6.2 nM | IC50 [4]: 1.8 nM | % TGD ([5]; 25 mg/kg iv qd × 1): 249.47% | MTV (n), Day 60 ([5]; 25 mg/kg iv qd × 1): 0.00 (3) mm^3 | Median TTE ([5]; 25 mg/kg iv qd × 1): 60 days | T-C ([5]; 25 mg/kg iv qd × 1): 42.83 days | CR (complete regression) ([5]; 25 mg/kg iv qd × 1, n=5): 3 | NTR (non-treatment-related death) ([5]; 25 mg/kg iv qd × 1, n=5): 0 | PR (partial regression) ([5]; 25 mg/kg iv qd × 1, n=5): 0 | TFS (tumor-free survivor) ([5]; 25 mg/kg iv qd × 1, n=5): 2 | TR (treatment-related death) ([5]; 25 mg/kg iv qd × 1, n=5): 0 | mice survived to D60 ([5]; 25 mg/kg iv qd × 1, n=5): Three | transient CR ([5]; 25 mg/kg iv qd × 1, n=5): 1 | IC50 [6]: 2.1 nM | rats found dead ([7]; 5 mg/kg/inj IV, 6 rats per group): 2 | rats found dead ([7]; 5 mg/kg/inj IV, 6 rats per group, listed as TXT): two | optimal T/C % value ([7]; 5 mg/kg/inj IV, at D60): 3.8% | animals with complete tumor regression ([7]; 5 mg/kg/inj IV, at D81 (final sacrifice), 6 rats per group): one | T/C % values ([7]; 5 mg/kg/inj IV): lower than 42% | rats found dead ([7]; 7 mg/kg/inj IV, 6 rats per group): 2 | rats found dead ([7]; 7 mg/kg/inj IV, 6 rats per group, listed as TXT): Two | optimal T/C % value ([7]; 7 mg/kg/inj IV, at D56): 12.3% | T/C % values ([7]; 7 mg/kg/inj IV): lower than 42% | antitumor activity [7]: marked antitumor activity | IC50 [8]: 3.4 nM | IC50 [9]: 1.1 nM | % TGD ([12]; 25 mg/kg iv qd × 1): 89.79% | BW Nadir ([12]; 25 mg/kg iv qd × 1): −10.2% (5) | MTV (n), Day 60 ([12]; 25 mg/kg iv qd × 1): 0.00 (5) mm^3 | Median TTE ([12]; 25 mg/kg iv qd × 1): 61 days | T-C ([12]; 25 mg/kg iv qd × 1): 28.86 days | CR (complete regression) ([12]; 25 mg/kg iv qd × 1, n=5): 5 | NTR (non-treatment-related death) ([12]; 25 mg/kg iv qd × 1, n=5): 0 | PR (partial regression) ([12]; 25 mg/kg iv qd × 1, n=5): 0 | TFS (tumor-free survivor) ([12]; 25 mg/kg iv qd × 1, n=5): 4 | TR (treatment-related death) ([12]; 25 mg/kg iv qd × 1, n=5): 0 | group mean weight loss ([12]; 25 mg/kg qd×1): 10.2% | transient CR ([12]; 25 mg/kg qd×1, n=5): 1 | IC50 [10]: 1.3 nM | IC50 [11, 15]: > 10 nM | IC50 [11, 16]: 20 nM
